Source: patent publication US7109193B2, “Tricyclic diazepines tocolytic oxytocin receptor antagonists” (Wyeth, priority 2001, dated 2006)

melting point [°C] | SMILES
201 to 204 | COc1cc(-c2ccccc2C)ccc1C(=O)N1Cc2ccc(C(=O)O)n2Cc2ccccc21
233 to 235 | Cc1cc(C(=O)N2Cc3ccc(C(=O)O)n3Cc3ccccc32)ccc1-c1ccccc1C(F)(F)F
207 to 208 | COc1cc(-c2ccccc2F)c(Cl)cc1C(=O)N1Cc2ccc(C(=O)O)n2Cc2ccccc21
